Laboratory results published in publication PMC8151276, “An Integrated Approach toward NanoBRET Tracers for Analysis of GPCR Ligand Engagement” (Molecules, 2021).

Target: T1, FPR2 (Homo sapiens, UniProt P25090)
T1 construct: purchased Promega (in-house HiBiT-GPCR construct library, NanoBRET)
T1 sequence (P25090 1-351): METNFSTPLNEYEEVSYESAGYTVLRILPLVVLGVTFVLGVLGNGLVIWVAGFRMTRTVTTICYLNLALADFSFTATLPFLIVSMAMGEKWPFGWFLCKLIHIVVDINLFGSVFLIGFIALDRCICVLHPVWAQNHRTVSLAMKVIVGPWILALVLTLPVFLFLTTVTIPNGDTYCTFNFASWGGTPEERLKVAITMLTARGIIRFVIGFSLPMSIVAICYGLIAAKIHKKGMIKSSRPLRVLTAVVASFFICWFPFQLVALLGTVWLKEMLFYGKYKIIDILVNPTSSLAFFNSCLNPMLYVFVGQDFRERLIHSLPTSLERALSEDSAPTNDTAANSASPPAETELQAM
Assay: NanoBRET screen HiBiT-FPR2 in HEK293
Assay type: binding
Experimental: Each tracer candidate was screened across the entire library of HiBiT-GPCR constructs using NanoBRET as the detection modality. As depicted in Figure 4A, the specificity of interactions was evaluated through decrease in BRET due to competitive displacement of a bound tracer by excess parental compound. Each tracer was analyzed for binding to each HiBiT-GPCR fusion in the absence and in the presence of competing parental compound. Briefly, HEK293 cells were transfected with HiBiT-GPCR constructs diluted into promoterless DNA to reduce expression and maximize translocation to the cell surface. Each tracer candidate was then screened at concentrations of 1 μM and 0.1 μM across cells expressing these fusions. Cells were treated for 1.5 h with tracer either alone or in the presence of 20 μM competing parental compound (i.e., control). BRET was measured upon addition of purified LgBiT and subsequent complementation with HiBiT genetically fused to a GPCR. The specificity of interactions was assessed through a decrease in BRET signal due to competitive displacement of the bound tracer. To further gauge the robustness of these interactions, the fold response over the control (i.e., BRETtracer/BRETcontrol) was calculated. We chose a 1.5-fold response, which translates to ≥7-fold signal over noise as the minimal threshold required to score an interaction as positive. […]. Below we highlight the screening results obtained for our exemplary fluorescent tracers based on Clozapine, Amitriptyline and AZD1283.
HiBiT-GPCR DNA constructs were diluted in 10 mM Tris pH 8 to a final concentration of 0.01 μg/μL, arrayed in 96-well plates and stored at −20 °C. For transfection, HEK293 cells were suspended in Opti-MEM (without phenol red) supplemented with 2% fetal bovine serum (Seradigm) and 100 units/mL penicillin–streptomycin (Gibco) at a final concentration of 220,000 cells/mL and dispensed into white 96-well plates at 90 μL/well. Subsequent transfections and screens were carried using an Agilent Bravo Automated Liquid Handling Platform. First, the 96-well HiBiT DNA arrays were diluted 25-fold in Opti-MEM (without serum or phenol red) to a final concentration of 0.0004 μg/μL and 20 μL of the diluted DNAs were transferred into new 96-well plates. Next, promoterless carrier DNA (1 μg/μL) was diluted 25-fold (0.04 μg/μL) and then dispensed into the diluted arrays at 20 μL/well. Following brief mixing, Viafect transfection reagent (Promega) diluted 16-fold into Opti-MEM was dispensed into the plates at 40 μL/well. After mixing by pipetting, plates were incubated for 10 min on the pipetting station deck. The DNA-transfection reagent complexes were then added to plates containing cells. To facilitate the screen, 10 μL of DNA-transfection reagent complexes were added in duplicates to the top 4 and bottom 4 rows, resulting in two identical 48-well arrays per plate. Plates with transfected cells were incubated for 18–20 h at 37 °C/5% CO2. A screen of each tracer across the entire library using two different concentrations requires duplicate plates of transfected cells. Depending on the number of tracers being screened, transfections can be scaled up using the same ratios. The next day, for each tracer, four 20× screening solutions in tracer dilution buffer (Promega) were prepared: two duplicates at final concentration of 20 μM and two duplicates at a final concentration of 2 μM. A competing unmodified compound was added to one of each duplicate at a final concentration of 400 μM. The four resulting solutions were diluted 4-fold in Opti-MEM without serum or phenol red to generate 5× solutions (5 µM and 0.5 µM tracer +/− 100 μM competing compound). To screen the library, a BioTek MultiFlo FX liquid dispenser was used to dispense 22.5 µL of tracer solution to the top 4 rows and 22.5 µL tracer + competing compound solution to the 4 bottom rows. Plates were briefly mixed on an orbital shaker and incubated for 1.5 h at room temperature. […]

| Compound | NanoBRET Fold Response (FPR2, tracer 0.1μM) | NanoBRET Fold Response (FPR2, tracer 1μM) | other results |
| --- | --- | --- | --- |
| CCOC(=O)c1cc(C#N)c(N2CCC(C(=O)NS(=O)(=O)Cc3ccccc3/C=C/C(=O)NCCNC(=O)CCc3ccc4n3[B-](F)(F)[N+]3=C(c5ccc[nH]5)C=CC3=C4)CC2)nc1C [AZD1283-1-NB590] |  |  | NanoBRET Fold Response (FPR2, 0.1μM): 0.99; NanoBRET Fold Response (FPR2, 1μM): 1.04 |
| N#CN=C(NCCCOc1cccc(CN2CCCCC2)c1)NCCNC(=O)CCOCCOCCOCCOCCNC(=O)CCc1ccc2n1[B-](F)(F)[N+]1=C(c3ccc[nH]3)C=CC1=C2 [Aminopotentidine-2-NB590] | 0.95 | 1.10 |  |
| CN(C)CCC=C1c2ccccc2CCc2ccc(C(=O)NCCNC(=O)CCOCCOCCOCCOCCNC(=O)CCc3ccc4n3[B-](F)(F)[N+]3=C(c5ccc[nH]5)C=CC3=C4)cc21 [Amitriptyline-a-2-NB590] |  |  | NanoBRET Fold Response (tracer at 0.1μM): 0.96; NanoBRET Fold Response (tracer at 1μM): 1.05 |
| CN(C)CCC=C1c2ccccc2CCc2ccc(C(=O)NCCNC(=O)CCOCCOCCOCCOCCNC(=O)CCc3ccc4n3[B-](F)(F)[N+]3=C(c5ccc[nH]5)C=CC3=C4)cc21 [Amitriptyline-b-2-NB590] |  |  | NanoBRET Fold Response (tracer at 0.1μM, listed as amitriptyline-b-2-NB590): 0.88; NanoBRET Fold Response (tracer at 1μM): 0.99 |
| COc1ccc2c(n1)c(CCNC(C)=O)cn2CCNC(=O)CCc1ccc2n1[B-](F)(F)[N+]1=C(c3ccc[nH]3)C=CC1=C2 [Azamelatonin-1-NB590] |  |  | NanoBRET Fold Response (0.1μM tracer): 0.96; NanoBRET Fold Response (1μM tracer): 1.50 |
| COc1ccc2[nH]c(-c3ccc(CNC(=O)CCOCCOCCOCCOCCNC(=O)CCc4ccc5n4[B-](F)(F)[N+]4=C(c6ccc[nH]6)C=CC4=C5)cc3)c(CCNC(C)=O)c2n1 [AzomelatoninICO9-2-NB590] |  |  | NanoBRET Fold Response (0.1μM tracer): 0.74; NanoBRET Fold Response (1μM tracer): 1.09 |
| O=C(CCOCCOCCOCCOCCNC(=O)CCc1ccc2n1[B-](F)(F)[N+]1=C(c3ccc[nH]3)C=CC1=C2)NCCCN1CCN(C2=Nc3cc(Cl)ccc3Nc3ccccc32)CC1 [Clozapine-a-2-NB590] |  |  | NanoBRET Fold Response (FPR2, 0.1μM tracer): 0.91; NanoBRET Fold Response (FPR2, 1μM tracer): 1.34 |
| CN1CCN(C2=Nc3cc(Cl)ccc3Nc3ccc(CNC(=O)CCOCCOCCOCCOCCNC(=O)CCc4ccc5n4[B-](F)(F)[N+]4=C(c6ccc[nH]6)C=CC4=C5)cc32)CC1 [Clozapine-b-2-NB590] |  |  | NanoBRET Fold Response (FPR2, 0.1μM tracer): 0.78 |
| CN1CCN(C2=Nc3cc(Cl)ccc3N(CC(=O)NCCOCCOCCOCCOCCNC(=O)CCc3ccc4n3[B-](F)(F)[N+]3=C(c5ccc[nH]5)C=CC3=C4)c3ccccc32)CC1 [Clozapine-c-2-NB590] |  |  | NanoBRET Fold Response (FPR2, 0.1μM tracer): 1.00; NanoBRET Fold Response (FPR2, 1μM tracer): 0.89 |
| O=C(CCOCCOCCOCCOCCNC(=O)CCc1ccc2n1[B-](F)(F)[N+]1=C(c3ccc[nH]3)C=CC1=C2)NCCCN1CCN(C2=Nc3ccccc3Oc3ccc(Cl)cc32)CC1 [Loxapine-a-2-NB590] | 0.81 | 0.85 |  |
| COc1ccccc1N1CCN(CCCCN2C(=O)c3ccc(CNC(=O)CCOCCOCCOCCOCCNC(=O)CCc4ccc5n4[B-](F)(F)[N+]4=C(c6ccc[nH]6)C=CC4=C5)cc3C2=O)CC1 [NAN-190-2-NB590] | 0.56 | 1.20 |  |
| COc1ccccc1N1CCN(CCCCN2C(=O)c3ccc(CNC(=O)CCOCCNC(=O)c4ccc(CNC(=O)CCc5ccc6n5[B-](F)(F)[N+]5=C(c7ccc[nH]7)C=CC5=C6)cc4)cc3C2=O)CC1 [NAN-190-3-NB590] | 1.35 | 0.77 |  |
| O=C(CCc1ccc2n1[B-](F)(F)[N+]1=C(c3ccc[nH]3)C=CC1=C2)NCc1ccc(C(=O)NCCOCCC(=O)N[C@@H]2CC[C@@]3(O)[C@H]4Cc5ccc(O)c6c5[C@@]3(CCN4CC3CC3)[C@H]2O6)cc1 [Naltrexone-3-NB590] | 0.87 | 0.66 |  |
| Cc1cc2c(s1)Nc1ccccc1N=C2N1CCN(CCCNC(=O)CCOCCOCCOCCOCCNC(=O)CCc2ccc3n2[B-](F)(F)[N+]2=C(c4ccc[nH]4)C=CC2=C3)CC1 [Olanzapine-a-2-NB590] | 0.70 | 0.80 |  |
| O=C(CCc1ccc2n1[B-](F)(F)[N+]1=C(c3ccc[nH]3)C=CC1=C2)NCc1ccc(C(=O)NCCOCCOCCNCC(O)COc2cccc3ccccc23)cc1 (stereo not drawn) [Propranolol-3-NB590] |  |  | NanoBRET Fold Response (FPR2, 0.1μM): 1.02; NanoBRET Fold Response (FPR2, 1μM): 1.12 |
| O=C(CCc1ccc2n1[B-](F)(F)[N+]1=C(c3ccc[nH]3)C=CC1=C2)NCCOCCOCCNC(=O)OCCOCCN1CCN(C2=Nc3ccccc3Sc3ccccc32)CC1 [Quetiapine-a-2-NB590] | 1.06 | 0.82 |  |
| Cc1nc2n(c(=O)c1CCN1CCC(c3noc4cc(F)ccc34)CC1)CCCC2OC(=O)NCCOCCOCCOCCOCCNC(=O)CCc1ccc2n1[B-](F)(F)[N+]1=C(c3ccc[nH]3)C=CC1=C2 (stereo not drawn) [Risperidone-2-NB590] | 0.94 | 0.95 |  |
| CC(C)N(CC[C@H](c1ccccc1)c1cc(CCNC(=O)CCOCCOCCOCCOCCNC(=O)CCc2ccc3n2[B-](F)(F)[N+]2=C(c4ccc[nH]4)C=CC2=C3)ccc1O)C(C)C [Tolterodine-2-NB590] | 1.07 | 0.71 |  |
| CC(C)N(CC[C@H](c1ccccc1)c1cc(CCNC(=O)c2ccc(CNC(=O)CCc3ccc4n3[B-](F)(F)[N+]3=C(c5ccc[nH]5)C=CC3=C4)cc2)ccc1O)C(C)C [Tolterodine-BZ-NB590] | 0.95 | 0.95 |  |
| CCCn1c(=O)c2[nH]c(-c3ccc(OCC(=O)NCCNC(=O)CCOCCNC(=O)c4ccc(CNC(=O)CCc5ccc6n5[B-](F)(F)[N+]5=C(c7ccc[nH]7)C=CC5=C6)cc4)cc3)nc2n(CCC)c1=O [XAC-3-NB590] | 0.89 | 0.95 |  |
